Data on one substance can be found in article PMC8401550, “Structural Characterization of a Macrocyclic Peptide Modulator of the PD-1/PD-L1 Immune Checkpoint Axis” (Molecules, 2021).

The term EC50 denotes the concentration needed to bring the measured effect to its halfway point. The low end stands for an effect from little substance, the high end for a need for much substance.

This experiment concerns PD-1/PD-L1 interaction, Jurkat cells overexpressing PD-1 with CHO-K1 cells overexpressing TCR activator and PD-L1. The experiment in a line: Cell-surface PD-L1/PD-1 immune checkpoint interaction assay (NFAT-luciferase reporter). The class given is cell-based. Particulars: control antibody; increase in luciferase reporter; fit of Hill equation; mean ± SD from three independent experiments. How it is done: CHO-K1 expressing the TCR activator and PD-L1 and Jurkat T cells carrying an NFAT-dependent luciferase gene and overexpressing PD-1 were obtained from Promega. The cells were cultured in RPMI 1640 medium supplemented with 10% FBS with hygromycin B (50 µg/mL) and G418 (250 µg/mL) at 37 °C with 5% CO2.
24 h before the experiment, the CHO-K1 cells were seeded on a 96-well plate in an amount of 10,000 cells/well. 2.5-fold serial dilutions of p104 were prepared in DMSO followed by 1000× dilution in the assay buffer (RPMI 1640, 1% FBS). The culture medium was replaced with the assay buffer containing 0.02–250 µM of p104. The Jurkat cells in the amount of 50,000 cells/well were added and co-cultured for 3 h in standard conditions. Luminescence was determined using Bio-Glo Assay reagent (Promega, Madison, WI, USA) following manufacturer protocol. Data were normalized at vehicle-treated control.

As for “Atezolizumab: FDA-approved therapeutic monoclonal antibody targeting PD-L1”, the EC50 was determined as 3.4 ± 0.2 nM.
